Data from ChEMBL document CHEMBL1201862, “PubChem BioAssay data set” (2004).
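Exposure lasted 48 hours, with cells grown in 96-well plates and compounds tested at five concentrations. GI50 = concentration required for 50% inhibition of growth.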 Activity calls are given as the source filed them. Rule as the data show it: active = GI50 up to about 1.1 µM and inactive = higher.

How the values were obtained:
Experiment in all cases: inhibition of tumour cell growth, NCI panel, 48 h
[1] = tested on: 786-0
[2] = tested on: A498
[3] = tested on: A549
[4] = tested on: ACHN
[5] = tested on: BT-549
[6] = tested on: CAKI-1
[7] = tested on: CCRF-CEM
[8] = tested on: COLO 205
[9] = tested on: DU-145
[10] = tested on: EKVX
[11] = tested on: HCC 2998
[12] = tested on: HCT-116
[13] = tested on: HCT-15
[14] = tested on: HL-60
[15] = tested on: HOP-62
[16] = tested on: HT-29
[17] = tested on: Hs-578T
[18] = tested on: IGROV-1
[19] = tested on: K562
[20] = tested on: KM12
[21] = tested on: M14
[22] = tested on: MCF7
[23] = tested on: MDA-MB-231
[24] = tested on: MDA-N
[25] = tested on: MOLT-4
[26] = tested on: Malme-3M
[27] = tested on: NCI-H226
[28] = tested on: NCI-H23
[29] = tested on: NCI-H460
[30] = tested on: NCI-H522
[31] = tested on: NCI/ADR-RES
[32] = tested on: OVCAR-3
[33] = tested on: OVCAR-4
[34] = tested on: OVCAR-5
[35] = tested on: OVCAR-8
[36] = tested on: PC-3
[37] = tested on: RXF 393
[38] = tested on: SF-268
[39] = tested on: SF-295
[40] = tested on: SF-539
[41] = tested on: SK-MEL-28
[42] = tested on: SK-MEL-2
[43] = tested on: SK-MEL-5
[44] = tested on: SK-OV-3
[45] = tested on: SN12C
[46] = tested on: SNB-19
[47] = tested on: SNB-75
[48] = tested on: SR
[49] = tested on: SW-620
[50] = tested on: T47D
[51] = tested on: TK-10
[52] = tested on: U-251
[53] = tested on: UACC-257
[54] = tested on: UACC-62
[55] = tested on: UO-31
[56] = tested on: HOP-92
[57] = tested on: LOX IMVI
[58] = tested on: MDA-MB-435
[59] = tested on: RPMI-8226

For `O=c1[nH]cnc2cccc(Cl)c12`, the GI50 [1] was > 100 µM (inactive), the GI50 [2] was > 100 µM (inactive) and the GI50 [3] was > 100 µM (inactive). For the same compound, the GI50 [4] was > 100 µM (inactive), the GI50 [5] was > 100 µM (inactive) and the GI50 [6] was > 100 µM (inactive). For the same compound, the GI50 [7] was > 100 µM (inactive), the GI50 [8] was > 100 µM (inactive) and the GI50 [9] was > 100 µM (inactive). The GI50 [10] was > 100 µM (inactive), the GI50 [11] was > 100 µM (inactive) and the GI50 [12] was > 100 µM (inactive). The GI50 [13] was greater than 100 µM, the GI50 [14] was > 100 µM (inactive) and the GI50 [15] was > 100 µM (inactive). For the same compound, the GI50 [16] was > 100 µM (inactive), the GI50 [17] was > 100 µM (inactive) and the GI50 [18] was > 100 µM (inactive). For the same compound, the GI50 [19] was > 100 µM (inactive), the GI50 [20] was > 100 µM (inactive) and the GI50 [21] was > 100 µM (inactive). For the same compound, the GI50 [22] was > 100 µM (inactive), the GI50 [23] was > 100 µM (inactive) and the GI50 [24] was > 100 µM (inactive). For the same compound, the GI50 [25] was > 100 µM (inactive), the GI50 [26] was > 100 µM (inactive) and the GI50 [27] was > 100 µM (inactive). For the same compound, the GI50 [28] was > 100 µM (inactive), the GI50 [29] was > 100 µM (inactive) and the GI50 [30] was > 100 µM (inactive). For the same compound, the GI50 [31] was > 100 µM (inactive), the GI50 [32] was > 100 µM (inactive) and the GI50 [33] was > 100 µM (inactive). The GI50 [34] was > 100 µM (inactive), the GI50 [35] was > 100 µM (inactive) and the GI50 [36] was > 100 µM (inactive). For the same compound, the GI50 [37] was > 100 µM (inactive), the GI50 [38] was > 100 µM (inactive) and the GI50 [39] was > 100 µM (inactive). The GI50 [40] was > 100 µM (inactive), the GI50 [41] was > 100 µM (inactive) and the GI50 [42] was > 100 µM (inactive). For the same compound, the GI50 [43] was > 100 µM (inactive), the GI50 [44] was > 100 µM (inactive) and the GI50 [45] was > 100 µM (inactive). For the same compound, the GI50 [46] was > 100 µM (inactive), the GI50 [47] was 65.2 µM (inactive) and the GI50 [48] was > 100 µM (inactive). The GI50 [49] was > 100 µM (inactive), the GI50 [50] was > 100 µM (inactive) and the GI50 [51] was > 100 µM (inactive). The GI50 [52] was > 100 µM (inactive), the GI50 [53] was > 100 µM (inactive) and the GI50 [54] was > 100 µM (inactive). The GI50 [55] was > 100 µM (inactive).
`CCc1n[nH]c(=O)n1CCO` was tested, and the GI50 [1] was > 100 µM (inactive), the GI50 [2] was > 100 µM (inactive) and the GI50 [3] was > 100 µM (inactive). The GI50 [4] was > 100 µM (inactive), the GI50 [5] was > 100 µM (inactive) and the GI50 [6] was > 100 µM (inactive). For the same compound, the GI50 [8] was > 100 µM (inactive), the GI50 [9] was > 100 µM (inactive) and the GI50 [10] was > 100 µM (inactive). The GI50 [11] was > 100 µM (inactive), the GI50 [12] was > 100 µM (inactive) and the GI50 [13] was greater than 100 µM. For the same compound, the GI50 [14] was > 100 µM (inactive), the GI50 [56] was > 100 µM (inactive) and the GI50 [16] was > 100 µM (inactive). For the same compound, the GI50 [18] was > 100 µM (inactive), the GI50 [19] was > 100 µM (inactive) and the GI50 [20] was > 100 µM (inactive). The GI50 [57] was > 100 µM (inactive), the GI50 [21] was > 100 µM (inactive) and the GI50 [22] was > 100 µM (inactive). For the same compound, the GI50 [23] was > 100 µM (inactive), the GI50 [58] was > 100 µM (inactive) and the GI50 [24] was > 100 µM (inactive). The GI50 [25] was > 100 µM (inactive), the GI50 [27] was > 100 µM (inactive) and the GI50 [28] was > 100 µM (inactive). For the same compound, the GI50 [29] was > 100 µM (inactive), the GI50 [31] was > 100 µM (inactive) and the GI50 [32] was > 100 µM (inactive). For the same compound, the GI50 [33] was > 100 µM (inactive), the GI50 [34] was > 100 µM (inactive) and the GI50 [35] was > 100 µM (inactive). The GI50 [36] was > 100 µM (inactive), the GI50 [59] was > 100 µM (inactive) and the GI50 [39] was > 100 µM (inactive). The GI50 [40] was > 100 µM (inactive), the GI50 [41] was > 100 µM (inactive) and the GI50 [42] was > 100 µM (inactive). The GI50 [43] was > 100 µM (inactive), the GI50 [44] was > 100 µM (inactive) and the GI50 [45] was > 100 µM (inactive). The GI50 [46] was > 100 µM (inactive), the GI50 [49] was > 100 µM (inactive) and the GI50 [50] was > 100 µM (inactive). For the same compound, the GI50 [51] was > 100 µM (inactive), the GI50 [52] was > 100 µM (inactive) and the GI50 [53] was > 100 µM (inactive). For the same compound, the GI50 [54] was > 100 µM (inactive) and the GI50 [55] was > 100 µM (inactive).
For `COC(=O)C(/C(=N\O)C(=O)Nc1cccc(Cl)c1C)c1cnc2ccccc2n1` (stereo unspecified), the GI50 [1] was > 100 µM (inactive), the GI50 [2] was > 100 µM (inactive) and the GI50 [3] was > 100 µM (inactive). The GI50 [4] was > 100 µM (inactive), the GI50 [5] was > 100 µM (inactive) and the GI50 [6] was > 100 µM (inactive). The GI50 [7] was > 100 µM (inactive), the GI50 [8] was > 100 µM (inactive) and the GI50 [9] was > 100 µM (inactive). The GI50 [10] was > 100 µM (inactive), the GI50 [11] was > 100 µM (inactive) and the GI50 [12] was > 100 µM (inactive). The GI50 [13] was greater than 100 µM, the GI50 [15] was > 100 µM (inactive) and the GI50 [56] was > 100 µM (inactive). The GI50 [16] was > 100 µM (inactive), the GI50 [18] was > 100 µM (inactive) and the GI50 [19] was > 100 µM (inactive). The GI50 [20] was > 100 µM (inactive), the GI50 [57] was > 100 µM (inactive) and the GI50 [21] was > 100 µM (inactive). The GI50 [22] was > 100 µM (inactive), the GI50 [23] was > 100 µM (inactive) and the GI50 [58] was > 100 µM (inactive). For the same compound, the GI50 [24] was > 100 µM (inactive), the GI50 [25] was > 100 µM (inactive) and the GI50 [26] was > 100 µM (inactive). For the same compound, the GI50 [27] was > 100 µM (inactive), the GI50 [28] was > 100 µM (inactive) and the GI50 [29] was > 100 µM (inactive). The GI50 [30] was > 100 µM (inactive), the GI50 [31] was > 100 µM (inactive) and the GI50 [32] was > 100 µM (inactive). For the same compound, the GI50 [33] was > 100 µM (inactive), the GI50 [34] was > 100 µM (inactive) and the GI50 [35] was > 100 µM (inactive). For the same compound, the GI50 [36] was > 100 µM (inactive), the GI50 [37] was 92.9 µM (inactive) and the GI50 [38] was > 100 µM (inactive). The GI50 [39] was > 100 µM (inactive), the GI50 [40] was > 100 µM (inactive) and the GI50 [41] was > 100 µM (inactive). The GI50 [42] was > 100 µM (inactive), the GI50 [43] was > 100 µM (inactive) and the GI50 [44] was > 100 µM (inactive). The GI50 [45] was > 100 µM (inactive), the GI50 [46] was > 100 µM (inactive) and the GI50 [47] was > 100 µM (inactive). The GI50 [48] was > 100 µM (inactive), the GI50 [49] was > 100 µM (inactive) and the GI50 [50] was > 100 µM (inactive). The GI50 [51] was > 100 µM (inactive), the GI50 [52] was > 100 µM (inactive) and the GI50 [53] was > 100 µM (inactive). For the same compound, the GI50 [54] was > 100 µM (inactive) and the GI50 [55] was > 100 µM (inactive).
